Test results taken from US10214519B2, “Phosphatidylinositol 3-kinase inhibitors” (Gilead Sciences, Inc., priority 2016, dated 2019).
pIC50: −log10 of the molar value.

The molecules below were run against PI3Kβ (Homo sapiens (Human), UniProt P42338) (assay: PI3K isoform TR-FRET enzymatic assay (PI3Kβ)). Conditions: 2× Km ATP, 30 minutes at 25° C.
PI3Kβ, sequence (P42338 whole entry, canonical isoform): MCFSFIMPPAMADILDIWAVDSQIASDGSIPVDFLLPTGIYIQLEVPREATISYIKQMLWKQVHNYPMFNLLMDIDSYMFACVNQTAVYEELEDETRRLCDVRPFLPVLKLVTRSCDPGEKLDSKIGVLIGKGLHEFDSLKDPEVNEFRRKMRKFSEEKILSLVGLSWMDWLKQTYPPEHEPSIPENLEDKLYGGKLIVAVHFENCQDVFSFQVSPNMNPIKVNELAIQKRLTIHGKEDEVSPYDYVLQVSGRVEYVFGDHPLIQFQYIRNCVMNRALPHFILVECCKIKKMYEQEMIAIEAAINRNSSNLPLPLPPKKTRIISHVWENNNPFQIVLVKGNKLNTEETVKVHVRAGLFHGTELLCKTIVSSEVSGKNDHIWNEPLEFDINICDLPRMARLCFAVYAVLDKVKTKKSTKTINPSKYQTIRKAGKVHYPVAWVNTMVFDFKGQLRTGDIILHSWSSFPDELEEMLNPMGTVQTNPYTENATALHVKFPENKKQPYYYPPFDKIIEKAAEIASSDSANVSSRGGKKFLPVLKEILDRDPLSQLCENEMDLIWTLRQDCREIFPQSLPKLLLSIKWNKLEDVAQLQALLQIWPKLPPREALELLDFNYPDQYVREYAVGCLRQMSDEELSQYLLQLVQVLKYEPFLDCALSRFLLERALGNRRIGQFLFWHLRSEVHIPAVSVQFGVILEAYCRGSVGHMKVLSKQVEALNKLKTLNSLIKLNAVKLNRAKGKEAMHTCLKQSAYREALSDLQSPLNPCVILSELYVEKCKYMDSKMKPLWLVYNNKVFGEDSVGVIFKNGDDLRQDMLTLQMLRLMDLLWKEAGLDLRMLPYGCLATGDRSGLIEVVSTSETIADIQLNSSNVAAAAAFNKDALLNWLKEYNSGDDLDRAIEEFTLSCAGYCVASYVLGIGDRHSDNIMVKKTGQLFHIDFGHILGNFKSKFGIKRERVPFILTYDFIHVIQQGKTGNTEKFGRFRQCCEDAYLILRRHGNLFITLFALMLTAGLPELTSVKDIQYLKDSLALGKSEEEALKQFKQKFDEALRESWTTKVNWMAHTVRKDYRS
PI3Kβ, sequence (P27986 whole entry partner, canonical isoform): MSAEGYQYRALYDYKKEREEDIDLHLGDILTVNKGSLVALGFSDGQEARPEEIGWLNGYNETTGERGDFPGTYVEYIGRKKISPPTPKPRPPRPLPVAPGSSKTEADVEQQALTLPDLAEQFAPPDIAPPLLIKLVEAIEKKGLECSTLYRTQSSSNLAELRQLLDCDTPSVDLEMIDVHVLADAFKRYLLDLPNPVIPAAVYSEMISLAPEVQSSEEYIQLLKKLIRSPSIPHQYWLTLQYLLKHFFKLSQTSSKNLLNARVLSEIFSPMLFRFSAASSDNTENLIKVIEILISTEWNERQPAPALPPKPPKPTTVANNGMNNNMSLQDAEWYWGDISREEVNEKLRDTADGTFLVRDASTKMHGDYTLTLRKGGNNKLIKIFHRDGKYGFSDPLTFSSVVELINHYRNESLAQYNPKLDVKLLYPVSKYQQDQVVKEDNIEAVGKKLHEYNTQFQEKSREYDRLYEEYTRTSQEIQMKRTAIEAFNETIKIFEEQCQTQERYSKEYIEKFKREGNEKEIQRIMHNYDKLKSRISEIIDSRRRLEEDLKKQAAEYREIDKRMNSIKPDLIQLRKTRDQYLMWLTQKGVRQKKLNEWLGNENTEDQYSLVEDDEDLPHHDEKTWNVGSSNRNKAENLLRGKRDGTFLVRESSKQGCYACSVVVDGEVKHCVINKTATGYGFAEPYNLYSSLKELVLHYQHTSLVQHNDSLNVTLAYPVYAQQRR
Format: biochemical
Summary of the method: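 IC50 came from four-parameter dose-response fits, normalized between DMSO and 1 μM wortmannin controls. The read-out was TR-FRET (615/665 nm) of PIP3 displacing fluorescent PIP3 from Europium GRP-1 after 10 mM EDTA termination. Compounds were incubated with purified heterodimeric PI3Kβ for 30 min at 25° C.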
CCc1nc2c(F)cccc2c(-n2c(C)nc3c(-c4nc(C)n[nH]4)cc(N4CCOCC4)cc32)c1C [Example 80, 4-[3-(2-ethyl-8-fluoro-3-methylquinolin-4-yl)-2-methyl-7-(3-methyl-1H-1,2,4-triazol-5-yl)benzimidazol-5-yl]morpholine] was tested, and the pIC50 was 7.21. Cc1nc2c(-c3nnc[nH]3)cc(N3CCOCC3)cc2n1-c1ccnc2cccc(F)c12 [Example 81, 4-[3-(5-fluoroquinolin-4-yl)-2-methyl-7-(4H-1,2,4-triazol-3-yl)benzimidazol-5-yl]morpholine] gave a pIC50 of 7.96. Cc1nc2c(-c3nnc[nH]3)cc(N3CCOCC3)cc2n1-c1ccnc2c(C(F)F)cccc12 [Example 82, 4-[3-[8-(difluoromethyl)quinolin-4-yl]-2-methyl-7-(4H-1,2,4-triazol-3-yl)benzimidazol-5-yl]morpholine] was tested, and the pIC50 was 8.05. Cc1cccc2nccc(-n3c(C)nc4c(-c5nnc[nH]5)cc(N5CCOCC5)cc43)c12 [Example 83, 4-[2-methyl-3-(5-methylquinolin-4-yl)-7-(4H-1,2,4-triazol-3-yl)benzimidazol-5-yl]morpholine] showed a pIC50 of 7.72. For Cc1nc2c(-c3nnc[nH]3)cc(N3CCOCC3)cc2n1-c1ccnc2cccc(Cl)c12 [Example 84, 4-[3-(5-chloroquinolin-4-yl)-2-methyl-7-(4H-1,2,4-triazol-3-yl)benzimidazol-5-yl]morpholine], the pIC50 was 7.77. Cc1nc2c(-c3nnc[nH]3)cc(N3CCOCC3)cc2n1-c1ccnc2cccc(C(F)F)c12 [Example 85, 4-[3-[5-(difluoromethyl)quinolin-4-yl]-2-methyl-7-(4H-1,2,4-triazol-3-yl)benzimidazol-5-yl]morpholine] gave a pIC50 of 6.55. Cc1nc2c(-c3nnc[nH]3)c(F)c(N3CCOCC3)cc2n1-c1ccnc2c(Cl)cccc12 [Example 86, 4-[3-(8-chloroquinolin-4-yl)-6-fluoro-2-methyl-7-(4H-1,2,4-triazol-3-yl)benzimidazol-5-yl]morpholine] gave a pIC50 of 7.80. Cc1nc2c(-c3nnc[nH]3)cc(N3CCOCC3)cc2n1-c1ccnc2c(Cl)ccc(F)c12 [Example 87, 4-[3-(8-chloro-5-fluoroquinolin-4-yl)-2-methyl-7-(4H-1,2,4-triazol-3-yl)benzimidazol-5-yl]morpholine] was tested, and the pIC50 was 7.85. In the case of FC(F)c1cc(-n2cnc3c(-c4nnc[nH]4)cc(N4CCOCC4)cc32)c2cccc(Cl)c2n1 [Example 88, 4-[3-[8-chloro-2-(difluoromethyl)quinolin-4-yl]-7-(4H-1,2,4-triazol-3-yl)benzimidazol-5-yl]morpholine], the pIC50 was 8.40. For Cc1nc2c(-c3nnc[nH]3)cc(N3CCOCC3)cc2n1-c1ccnc2c(C#N)cccc12 [Example 89, 4-[2-methyl-6-morpholin-4-yl-4-(4H-1,2,4-triazol-3-yl)benzimidazol-1-yl]quinoline-8-carbonitrile], the pIC50 was 7.92. For Cc1nc2c(-c3nnc[nH]3)cc(N3CCOCC3)cc2n1-c1ccnc2cc(F)ccc12 [Example 90, 4-[3-(7-fluoroquinolin-4-yl)-2-methyl-7-(4H-1,2,4-triazol-3-yl)benzimidazol-5-yl]morpholine], the pIC50 was 7.96. Cc1nc2c(-c3nnc[nH]3)cc(N3CCOCC3)c(F)c2n1-c1ccnc2c(Cl)cccc12 [Example 91, 4-[3-(8-chloroquinolin-4-yl)-4-fluoro-2-methyl-7-(4H-1,2,4-triazol-3-yl)benzimidazol-5-yl]morpholine] gave a pIC50 of 7.72. For Cc1nnc(-c2cc(N3CCOCC3)cc3c2nc(C)n3-c2ccnc3c(C(F)F)cccc23)[nH]1 [Example 92, 4-[3-[8-(difluoromethyl)quinolin-4-yl]-2-methyl-7-(5-methyl-4H-1,2,4-triazol-3-yl)benzimidazol-5-yl]morpholine], the pIC50 was 7.34. Work on Cc1nnc(-c2cc(N3CCOCC3)cc3c2nc(C)n3-c2ccnc3cccc(C)c23)[nH]1 [Example 93, 4-[2-methyl-3-(5-methylquinolin-4-yl)-7-(5-methyl-4H-1,2,4-triazol-3-yl)benzimidazol-5-yl]morpholine] yielded a pIC50 of 6.54. Cc1nnc(-c2cc(N3CCOCC3)cc3c2nc(C)n3-c2ccnc3c(Cl)ccc(F)c23)[nH]1 [Example 94, 4-[3-(8-chloro-5-fluoroquinolin-4-yl)-2-methyl-7-(5-methyl-4H-1,2,4-triazol-3-yl)benzimidazol-5-yl]morpholine] showed a pIC50 of 7.59. Molecule Fc1cccc2c(-n3cnc4c(-c5nnc[nH]5)cc(N5CCOCC5)cc43)ccnc12 [Example 95, 4-[3-(8-fluoroquinolin-4-yl)-7-(4H-1,2,4-triazol-3-yl)benzimidazol-5-yl]morpholine] has a pIC50 of 8.22. Fc1ccc(Cl)c2c(-n3cnc4c(-c5nnc[nH]5)cc(N5CCOCC5)cc43)ccnc12 [Example 96, 4-[3-(5-chloro-8-fluoroquinolin-4-yl)-7-(4H-1,2,4-triazol-3-yl)benzimidazol-5-yl]morpholine] gave a pIC50 of 7.62. Cc1nc2c(-c3nnc[nH]3)cc(N3CCOCC3)cc2n1-c1c(Cl)cnc2c(Cl)cccc12 [Example 97, 4-[3-(3,8-dichloroquinolin-4-yl)-2-methyl-7-(4H-1,2,4-triazol-3-yl)benzimidazol-5-yl]morpholine] gave a pIC50 of 7.92. In the case of CCc1nc2c(-c3nnc[nH]3)cc(N3CCOCC3)cc2n1-c1c(Cl)cnc2c(Cl)cccc12 [Example 98, 4-[3-(3,8-dichloroquinolin-4-yl)-2-ethyl-7-(4H-1,2,4-triazol-3-yl)benzimidazol-5-yl]morpholine], the pIC50 was 7.89. Molecule Cc1nc2c(-c3nnc[nH]3)cc(N3CCOC[C@@H]3C)cc2n1-c1ccnc2c(Cl)cccc12 [Example 99, (3S)-4-[3-(8-chloroquinolin-4-yl)-2-methyl-7-(4H-1,2,4-triazol-3-yl)benzimidazol-5-yl]-3-methylmorpholine] has a pIC50 of 7.48. Cc1nc2c(-c3nnc[nH]3)cc(N3CCOC[C@H]3C)cc2n1-c1ccnc2c(Cl)cccc12 [Example 100, (3R)-4-[3-(8-chloroquinolin-4-yl)-2-methyl-7-(4H-1,2,4-triazol-3-yl)benzimidazol-5-yl]-3-methylmorpholine] gave a pIC50 of 7.37. For Cc1nc2c(-c3nnc[nH]3)cc(N3CCOCC3)cc2n1-c1ccnc2c(Cl)cccc12 [Example 101, 4-[3-(8-chloroquinolin-4-yl)-2-methyl-7-(4H-1,2,4-triazol-3-yl)benzimidazol-5-yl]morpholine], the pIC50 was 8.15. In the case of Clc1cccc2c(-n3c(C4CCCO4)nc4c(-c5nnc[nH]5)cc(N5CCOCC5)cc43)ccnc12 (centres unmarked) [Example 102, 4-[3-(8-chloroquinolin-4-yl)-2-(oxolan-2-yl)-7-(4H-1,2,4-triazol-3-yl)benzimidazol-5-yl]morpholine], the pIC50 was 7.68. For Cc1nc2c(-c3nnc[nH]3)cc(N3CCOCC3)cc2n1-c1cc(-c2cscn2)nc2ccccc12 [Example 103, 4-(2-methyl-1-(2-(thiazol-4-yl)quinolin-4-yl)-4-(4H-1,2,4-triazol-3-yl)-1H-benzo[d]imidazol-6-yl)morpholine], the pIC50 was 8.05. With Cc1nnc(-c2cc(N3CCOCC3)cc3c2nc(C)n3-c2cc(-c3cscn3)nc3ccccc23)[nH]1 [Example 104, 4-(2-methyl-4-(5-methyl-4H-1,2,4-triazol-3-yl)-1-(2-(thiazol-4-yl)quinolin-4-yl)-1H-benzo[d]imidazol-6-yl)morpholine] the pIC50 was 7.08. CCc1nc2c(-c3nnc[nH]3)cc(N3CCOCC3)cc2n1-c1ccnc2c(Cl)cccc12 [Example 105, 4-[3-(8-chloroquinolin-4-yl)-2-ethyl-7-(4H-1,2,4-triazol-3-yl)benzimidazol-5-yl]morpholine] was tested, and the pIC50 was 8.00. Cc1nc2c(-c3nnc[nH]3)cc(N3CCOCC3)cc2n1-c1ccnc2ccccc12 [Example 106, 4-[2-methyl-3-quinolin-4-yl-7-(4H-1,2,4-triazol-3-yl)benzimidazol-5-yl]morpholine] was tested, and the pIC50 was 7.77. In the case of CCc1nc2c(-c3nnc[nH]3)cc(N3CCOCC3)cc2n1-c1ccnc2ccccc12 [Example 107, 4-[2-ethyl-3-quinolin-4-yl-7-(4H-1,2,4-triazol-3-yl)benzimidazol-5-yl]morpholine], the pIC50 was 7.54. Molecule Cc1nc2c(-c3nnc[nH]3)cc(N3CCOCC3)cc2n1-c1ccnc2c(C(F)(F)F)cccc12 [Example 108, 4-[2-methyl-7-(4H-1,2,4-triazol-3-yl)-3-[8-(trifluoromethyl)quinolin-4-yl]benzimidazol-5-yl]morpholine] has a pIC50 of 7.59. With Cc1cccc2c(-n3c(C)nc4c(-c5nnc[nH]5)cc(N5CCOCC5)cc43)ccnc12 [Example 109, 4-[2-methyl-3-(8-methylquinolin-4-yl)-7-(4H-1,2,4-triazol-3-yl)benzimidazol-5-yl]morpholine] the pIC50 was 7.89. Molecule Clc1cccc2c(-n3c(C4CC4)nc4c(-c5nnc[nH]5)cc(N5CCOCC5)cc43)ccnc12 [Example 110, 4-[3-(8-chloroquinolin-4-yl)-2-cyclopropyl-7-(4H-1,2,4-triazol-3-yl)benzimidazol-5-yl]morpholine] has a pIC50 of 7.72. Clc1cccc2c(-n3cnc4c(-c5nnc[nH]5)cc(N5CCOCC5)cc43)ccnc12 [Example 111, 4-[3-(8-chloroquinolin-4-yl)-7-(4H-1,2,4-triazol-3-yl)benzimidazol-5-yl]morpholine] gave a pIC50 of 8.52. In the case of Clc1cccc2c(-n3c(-c4cnco4)nc4c(-c5nnc[nH]5)cc(N5CCOCC5)cc43)ccnc12 [Example 112, 4-[3-(8-chloroquinolin-4-yl)-2-(1,3-oxazol-5-yl)-7-(4H-1,2,4-triazol-3-yl)benzimidazol-5-yl]morpholine], the pIC50 was 7.77. Clc1cccc2c(-n3c(C4COC4)nc4c(-c5nnc[nH]5)cc(N5CCOCC5)cc43)ccnc12 [Example 113, 4-[3-(8-chloroquinolin-4-yl)-2-(oxetan-3-yl)-7-(4H-1,2,4-triazol-3-yl)benzimidazol-5-yl]morpholine] was tested, and the pIC50 was 7.77. For Cc1nc2c(-c3nnc[nH]3)cc(N3CCOCC3)cc2n1-c1ccnc2c(F)ccc(F)c12 [Example 114, 4-[3-(5,8-difluoroquinolin-4-yl)-2-methyl-7-(4H-1,2,4-triazol-3-yl)benzimidazol-5-yl]morpholine], the pIC50 was 7.92.
